# Patent US20260285816A1, “Piperazinyl-Modified Quinazolinyl-Aryl Urea Derivative, And Preparation Method And Use Thereof” (Guangxi Normal University, priority 2025, published 2026)
# Counter-ions that a name gives are not always drawn. Like-named read-outs stand apart in the source and are kept apart here.
# Key:
# 143B cells = assay: CCK-8 anti-proliferative assay, 143B; format: cell-based, human; conditions: Homo sapiens, 143B, co-incubated 48 h, read-out: Anti-proliferative activity (IC50 ± standard deviation) 143B
# Outline: (§1)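 Human tumour cells were seeded at 5,000 per well and grown to 70% confluence. They were then treated in triplicate with compound at 1–30 μM (final) for the designated time. Viability was read by CCK-8 absorbance at 450 nm after 1–4 h, and IC50 was derived from % inhibition versus control.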
# MG-63 cells = assay: CCK-8 anti-proliferative assay, MG-63; format: cell-based, human; conditions: Homo sapiens, MG-63, co-incubated 48 h, read-out: Anti-proliferative activity (IC50 ± standard deviation) MG-63
# Outline: as §1
# human osteosarcoma 143B = assay: 143B tumor-bearing nude mouse model; format: in vivo, nude mice; conditions: 40 mg/kg oral gavage, every 2 d, 42 d
# Method: Experimental method: bladder cancer J82 cells in logarithmic growth phase were trypsinized, collected, and then centrifuged, and resuspended in serum-free DMEM medium after discarding an original medium. Cell density was adjusted, and 0.2 mL cell suspension was subcutaneously inoculated into 5-week-old BALB/c-nu mice (sex-balanced, 18-20 g) under a laminar flow clean bench. Post-inoculation, bleeding at injection sites was monitored. When tumors reached 50-80 mm^3, nude mice with good tumor growth status were randomized into 5 groups (n=6/group) for intraperitoneal administration. Tumor volume and body weight were recorded on Day 0. […] Dosing occurred every 2 d for 42 d. After administering the drug, mice were monitored for diarrhea, anorexia, lethargy, and allergic reactions (e.g., pruritus). The body weight of nude mice was measured every 2 days, and the long and short diameters of the tumors in nude mice were measured by using a vernier caliper, then the recording was finished.
# Construction of the human osteosarcoma 143B tumor-bearing nude mouse model followed similar procedures, with identical dosing frequency but administration route changed to oral gavage. Specifically: When tumors reached 60-90 mm^3, mice were randomized into 4 groups (n=6). […]
# BxPC-3 cells = assay: CCK-8 anti-proliferative assay, BxPC-3; format: cell-based, human
# Outline: as §1
# UM-UC-3 cells [1] = assay: CCK-8 anti-proliferative assay, UM-UC-3; format: cell-based, human; conditions: Homo sapiens, UMUC3; Table 10; co-incubated 48 h; read-out: Anti-proliferative activity (IC50 ± standard deviation) UM-UC-3
# Outline: (§2)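 Cells seeded at 5,000/well and grown at 37° C., 5% CO2 to 70% confluency, then treated with compound at final 1, 2, 4, 6, 8, 12, 16, 24 and 30 μM in triplicate.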
# [2] = system: immortalized ureteral epithelial cells (SV-HUC-1); assay: CCK-8 anti-proliferative assay, normal cells SV-HUC-1; format: cell-based, human; conditions: Homo sapiens, SV-HUC1; Table 13; normal cells; co-incubated 48 h; read-out: Anti-proliferative activity (IC50 ± standard deviation) SV-HUC-1
# Outline: as §2
# Hep G2 cells = assay: CCK-8 anti-proliferative assay, Hep G2; format: cell-based, human; conditions: Homo sapiens, HepG2; Table 12; co-incubated 48 h; read-out: Anti-proliferative activity (IC50 ± standard deviation) Hep G2
# Outline: as §1
# 5637 cells = assay: CCK-8 anti-proliferative assay, 5637; format: cell-based, human; conditions: Homo sapiens
# Outline: as §2
# J82 cells = assay: CCK-8 anti-proliferative assay, J82; format: cell-based, human; conditions: Homo sapiens, J82
# Outline: as §2
# MCF-7 cells = assay: CCK-8 anti-proliferative assay, MCF-7; format: cell-based, human; conditions: Homo sapiens, MCF7; Table 12; co-incubated 48 h; read-out: Anti-proliferative activity (IC50 ± standard deviation) MCF-7
# Outline: as §2
# SK-OV-3 cells = assay: CCK-8 anti-proliferative assay, SK-OV-3; format: cell-based, human; conditions: Homo sapiens, SK-OV-3; Table 12; co-incubated 48 h; read-out: Anti-proliferative activity (IC50 ± standard deviation) SK-OV-3
# Outline: as §2
# HeLa cells = assay: CCK-8 anti-proliferative assay, HeLa; format: cell-based, human
# Outline: as §2
# A549 cells = assay: CCK-8 anti-proliferative assay, A549; format: cell-based, human
# Outline: as §2
# [3] = system: embryonic lung fibroblasts (WI-38); assay: CCK-8 anti-proliferative assay, normal cells WI-38; format: cell-based, human; conditions: Homo sapiens, WI-38, Table 13, co-incubated 48 h, read-out: Anti-proliferative activity (IC50 ± standard deviation) WI-38
# Outline: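 Absorbance at 450 nm after CCK-8 labelling (1–4 h, varying by cell line) gave inhibition relative to untreated control, from which IC50 values were derived. Compounds were applied at final concentrations of 1 to 30 μM in triplicate wells once cultures reached 70% confluency, with co-incubation for designated durations.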
# PANC-1 cells = assay: CCK-8 anti-proliferative assay, PANC-1; format: cell-based, human
# Outline: as §1
# T24 cells = assay: CCK-8 anti-proliferative assay, T24; format: cell-based, human; conditions: Homo sapiens, T-24; Table 10; co-incubated 48 h; read-out: Anti-proliferative activity (IC50 ± standard deviation) T24
# Outline: as §1
# UM-UC-3 cells [4] = assay: Cell cycle analysis (PI staining, flow cytometry), UM-UC-3; format: cell-based, human
# Method: Tumor cells (T24, UM-UC-3, 143B, BxPC-3) in logarithmic growth phase were inoculated into 70 mm culture dishes. After 70% confluency was reached, medium was replaced and treated with: compound 8-1j, ferroptosis inducer Erastin, or cell cycle blocker paclitaxel (PTX) for a specified duration. Post-incubation, cells were trypsinized, collected, centrifuged, and washed 2 times with pre-cooled phosphate-buffered saline (PBS). Pre-cooled 75% ethanol was added dropwise during vortexing for fixation at −20° C. overnight. After centrifugation (10 min), supernatant was discarded. Cells were rewashed with PBS and centrifuged. Following kit instructions (Beyotime, C1052, China), 0.5 mL staining buffer, 25 μL PI (propidium iodide) stain (20×), and 10 μL RNase A (50×) were mixed per sample. Cells were resuspended in PI staining solution and incubated at 37° C. in dark for 30 min (gentle shaking every 10 min). Samples were filtered through 200-mesh filters, transferred into a flow tube, and analyzed via BD FACSVerse flow cytometer. All experiments were conducted in 3 repeats. Compounds 8-2h and 8-2j were evaluated identically.
compound,measurement,setting,value
"N#CC1(c2ccc(NC(=O)c3cccnc3NCc3ccncc3)cc2)CCCC1 [Apat, apatinib mesylate, reference compound]",IC50,143B cells; Table 7,28.4 ± 1.29 µM
same,IC50,MG-63 cells; Table 7,> 30 µM
same,Tumor inhibition,human osteosarcoma 143B,weak tumor inhibition activity
"COc1cc2ncnc(NCc3cccc(NC(=O)Nc4ccc(C(C)(C)C)cc4)c3)c2cc1OCCCCCCN1CCC(CN2CCN(c3ccccn3)CC2)CC1 [Compound 8-2j, N-(3-(((7-methoxy-6-((6-(4-((4-(pyridin-2-yl)piperazin-1-yl)methyl)piperidin-1-yl)hexyl)oxy)quinazolin-4-yl)amino)methyl)phenyl)-N′-(4-tert-butylphenyl)urea]","Sensitivity of BxPC-3 / anti-proliferative activity against BxPC-3, in words",BxPC-3 cells,heightened sensitivity
same,IC50,"BxPC-3 cells; Homo sapiens, BXPC-3, Table 11, co-incubated 48 h, read-out: Anti-proliferative activity (IC50 ± standard deviation) BxPC-3",6.15 ± 0.47 µM
same,IC50,143B cells; Table 11,5.59 ± 0.49 µM
same,IC50,UM-UC-3 cells [1],4.66 ± 0.29 µM
same,IC50,[2],8.91 ± 0.72 µM
same,IC50,Hep G2 cells,3.81 ± 0.24 µM
same,IC50,"5637 cells; Table 10, co-incubated 48 h, read-out: Anti-proliferative activity (IC50 ± standard deviation) 5637",2.97 ± 0.23 µM
same,IC50,5637 cells; read-out: IC50 values against 5637 cells,2.97 ± 0.23 µM
same,IC50,"J82 cells; Table 10, co-incubated 48 h, read-out: Anti-proliferative activity (IC50 ± standard deviation) J82",3.42 ± 0.25 µM
same,IC50,J82 cells; read-out: IC50 values against J82 cells,3.42 ± 0.25 µM
same,IC50,MCF-7 cells,5.73 ± 0.59 µM
same,IC50,MG-63 cells; Table 11,4.64 ± 0.32 µM
same,IC50,SK-OV-3 cells,4.61 ± 0.38 µM
same,"Sensitivity of HeLa, in words",HeLa cells,sensitive
same,IC50,"HeLa cells; Homo sapiens, HeLa, Table 12, co-incubated 48 h, read-out: Anti-proliferative activity (IC50 ± standard deviation) HeLa",3.81 ± 0.25 µM
same,"Activity against A549 versus the 8-1 to 8-23 series, in words",A549 cells,significantly enhanced activity against A549
same,IC50,"A549 cells; Homo sapiens, A549, Table 13, co-incubated 48 h, read-out: Anti-proliferative activity (IC50 ± standard deviation) A549",3.09 ± 0.24 µM
same,IC50,[3],8.79 ± 0.42 µM
same,"Sensitivity of PANC-1, in words",PANC-1 cells,heightened sensitivity
same,IC50,"PANC-1 cells; Homo sapiens, PANC-1, Table 11, co-incubated 48 h, read-out: Anti-proliferative activity (IC50 ± standard deviation) PANC-1",5.46 ± 0.31 µM
same,IC50,T24 cells,3.32 ± 0.15 µM
same,Effect of co-administration with PTX on cell cycle,"UM-UC-3 cells [4]; UM-UC-3, with PTX",Synergistic effects
same,Cell cycle arrest phase,UM-UC-3 cells [4]; UM-UC-3 cells (FIG. 45),arrest cell cycle at G2/M phase
